18 compounds from PMC9412300, “In Vitro Evaluation and Mitigation of Niclosamide’s Liabilities as a COVID-19 Treatment” (Vaccines, 2022) can be followed below.

Molecules are shown by their SMILES.

One data set has as its system H1437 cells. Briefly: Cell viability (cell count per well) in H1437, 72 h compound exposure. It counts as cell-based, human. Particulars: H1437 infected with WA1, 72 h compound exposure.
Compound `COC(=O)c1ccc(NC(=O)c2cccc(C(C)(C)C)c2O)c(Cl)c1` [Compound 25] returned a CC50 above 20 µM.

In turn, `COC(=O)c1ccc(NC(=O)c2cc(C(F)(F)F)ccc2O)c(C)c1` [Compound 23] yielded a CC50 above 20 µM.

With `CC(C)(C)c1cc(C(=O)Nc2ccc(N)cc2Cl)c(O)c(C(C)(C)C)c1` [Compound 19], the CC50 was above 20 µM.

Turning to `CC(C)(C)c1cc(C(=O)Nc2ccc(NS(C)(=O)=O)cc2Cl)c(O)c(C(C)(C)C)c1` [Compound 18], the CC50 is above 20 µM.

Compound `Cc1cc(NC(=O)c2cc(C(C)(C)C)cc(C(C)(C)C)c2O)ccc1C(=O)O` [Compound 20] came in with a CC50 above 20 µM.

Consider `CC(C)(C)c1cccc(C(=O)Nc2ccc([N+](=O)[O-])cc2Cl)c1O` [Compound 31], for which the CC50 amounted to 1.11 µM.

The compound `COc1ccc(O)c(C(=O)Nc2ccc([N+](=O)[O-])cc2Cl)c1` [Compound 4] had a CC50 of 8.94 µM.

Regarding `O=C(O)c1ccc(NC(=O)c2cc(C3CCCCC3)ccc2O)c(Cl)c1` [Compound 22], the CC50 was above 20 µM.

In turn, `CC(C)(C)c1ccc(O)c(C(=O)Nc2ccc(C(=O)O)cc2Cl)c1` [Compound 14] yielded a CC50 above 20 µM.

`COc1ccc(O)c(C(=O)Nc2ccc(C(=O)O)cc2C)c1` [Compound 28]: the CC50 was above 20 µM.

In the case of `COc1ccc(O)c(C(=O)Nc2ccc([N+](=O)[O-])cc2Cl)c1` [Compound 12], the CC50 was 7.53 µM.

As for `Cc1ccc(NC(=O)c2cc(Cl)ccc2O)c(Cl)c1` [Compound 6], the CC50 came out at 6.05 µM.

Consider `COc1ccc(NC(=O)c2cc(Cl)ccc2O)c(Cl)c1` [Compound 10], for which the CC50 was 18.9 µM.

The subject of another data set is VeroE6 cells.
Assay: not given
Details: not given
Take `Cc1cc(NC(=O)c2cc(C(C)(C)C)cc(C(C)(C)C)c2O)ccc1C(=O)O` [Compound 27]: the CC50 was above 20 µM.

For `COC(=O)c1ccc(NC(=O)c2cccc(C(C)(C)C)c2O)c(Cl)c1` [Compound 25], the CC50 is above 20 µM.

Compound `COC(=O)c1ccc(NC(=O)c2cc(C(F)(F)F)ccc2O)c(C)c1` [Compound 23] had a CC50 above 20 µM.

Take `CC(C)(C)c1cc(C(=O)Nc2ccc(N)cc2Cl)c(O)c(C(C)(C)C)c1` [Compound 19]: the CC50 came out at 17.6 µM.

As to `CC(C)(C)c1cc(C(=O)Nc2ccc(NS(C)(=O)=O)cc2Cl)c(O)c(C(C)(C)C)c1` [Compound 18], the CC50 is above 20 µM.

For `Cc1cc(NC(=O)c2cc(C(C)(C)C)cc(C(C)(C)C)c2O)ccc1C(=O)O` [Compound 20], the CC50 is above 20 µM.

On to `CC(C)(C)c1cccc(C(=O)Nc2ccc([N+](=O)[O-])cc2Cl)c1O` [Compound 31], for which the CC50 was 7.21 µM.

As for `COc1ccc(O)c(C(=O)Nc2ccc([N+](=O)[O-])cc2Cl)c1` [Compound 4], the CC50 was 10.1 µM.

In the case of `O=C(O)c1ccc(NC(=O)c2cc(C3CCCCC3)ccc2O)c(Cl)c1` [Compound 22], the CC50 was above 20 µM.

Turning to `CC(C)(C)c1ccc(O)c(C(=O)Nc2ccc(C(=O)O)cc2Cl)c1` [Compound 14], the CC50 is 14.2 µM.

Consider `COc1ccc(O)c(C(=O)Nc2ccc(C(=O)O)cc2C)c1` [Compound 28], for which the CC50 is above 20 µM.

Turning to `COc1ccc(O)c(C(=O)Nc2ccc([N+](=O)[O-])cc2Cl)c1` [Compound 12], the CC50 came to 10.3 µM.

In turn, `Cc1ccc(NC(=O)c2cc(Cl)ccc2O)c(Cl)c1` [Compound 6] showed a CC50 of 4.59 µM.

As for `COc1ccc(NC(=O)c2cc(Cl)ccc2O)c(Cl)c1` [Compound 10], the CC50 was above 20 µM.

Test system in another data set: not listed separately
Kind of data set: in vitro. Particulars: African green monkey.
Consider `O=[N+]([O-])c1ccc(O)c([N+](=O)[O-])c1` [2,4 DNP], for which the CC50 is above 100 µM.

Test system in the next data set: not listed separately
Briefly: Cell viability in VeroE6, shortened 24 h infection assay. Particulars: African green monkey.
As to `O=c1oc2ccccc2c(O)c1Cc1c(O)c2ccccc2oc1=O` [Dicumarol, dicumarol], the CC50 at 25 h is above 100 µM.

`N#CC(C#N)=NNc1ccc(OC(F)(F)F)cc1` [FCCP] had a CC50 at 25 h of 43 µM.

`O=C(Nc1cc(Cl)cc(Cl)c1O)c1c(O)c(Cl)cc(Cl)c1Cl` [Oxyclozanide, oxyclozanide] showed a CC50 at 25 h above 100 µM.

A further data set deals with SARS-CoV-2 WA1 (wildtype). Briefly: microbe, parasite or virus in culture. Format: cell-based. Particulars: Severe acute respiratory syndrome coronavirus 2, Vero C1008, 24 h, read-out: IC50 WA1 (protonophores).
In the case of `N#CC(C#N)=NNc1ccc(OC(F)(F)F)cc1` [FCCP], the IC50 was found to be 35 µM.

The same data set, now with this note: Severe acute respiratory syndrome coronavirus 2, Vero C1008, 24 h; read-out: IC50 WA1 (protonophores).
With `O=c1oc2ccccc2c(O)c1Cc1c(O)c2ccccc2oc1=O` [Dicumarol, dicumarol], the IC50 was above 100 µM.

On to `O=C(Nc1cc(Cl)cc(Cl)c1O)c1c(O)c(Cl)cc(Cl)c1Cl` [Oxyclozanide, oxyclozanide], for which the IC50 amounted to 64 µM.

In the case of `O=[N+]([O-])c1ccc(O)c([N+](=O)[O-])c1` [2,4 DNP], the concentration for half-maximal inhibition (IC50) was above 100 µM.

In a further data set the test system is SARS-CoV-2 B.1.1.7 (alpha). Kind of data set: microbe, parasite or virus in culture. Format: cell-based. Particulars: Severe acute respiratory syndrome coronavirus 2, Vero C1008, 24 h, read-out: IC50 B.1.1.7 (protonophores).
On to `N#CC(C#N)=NNc1ccc(OC(F)(F)F)cc1` [FCCP], for which the IC50 amounted to 13 µM.

Staying with this data set, now noted: Severe acute respiratory syndrome coronavirus 2, Vero C1008, 24 h; read-out: IC50 B.1.1.7 (protonophores).
For the compound `O=c1oc2ccccc2c(O)c1Cc1c(O)c2ccccc2oc1=O` [Dicumarol, dicumarol], the IC50 is above 100 µM.

On to `O=C(Nc1cc(Cl)cc(Cl)c1O)c1c(O)c(Cl)cc(Cl)c1Cl` [Oxyclozanide, oxyclozanide], for which the IC50 was found to be 20 µM.

Consider `O=[N+]([O-])c1ccc(O)c([N+](=O)[O-])c1` [2,4 DNP], for which the IC50 was above 100 µM.
